# The supplement of paper PMC9663587
# Legend:
# [1] = compound: CCc1cnn2c(NCc3ccc[n+]([O-])c3)cc(N3CCCC[C@H]3CCO)nc12
# LEE011/Ribociclib [2] = compound: T1, CN(C)C(=O)c1cc2cnc(Nc3ccc(N4CCNCC4)cn3)nc2n1C1CCCC1 [LEE011/Ribociclib]
# Doxorubicin = compound: COc1cccc2c1C(=O)c1c(O)c3c(c(O)c1C2=O)C[C@@](O)(C(=O)CO)C[C@@H]3O[C@H]1C[C@H](N)[C@H](O)[C@H](C)O1 [Doxorubicin]
# Pictilisib/GDC0941 = compound: CS(=O)(=O)N1CCN(Cc2cc3nc(-c4cccc5[nH]ncc45)nc(N4CCOCC4)c3s2)CC1 [Pictilisib/GDC0941]
# Ceritinib/LDK378 = compound: Cc1cc(Nc2ncc(Cl)c(Nc3ccccc3S(=O)(=O)C(C)C)n2)c(OC(C)C)cc1C1CCNCC1 [Ceritinib/LDK378]
# [3] = compound: Cc1nn(C)c(COc2ccc(N3CCN(S(=O)(=O)N(C)C)CC3)cc2)c1-c1cccc2c(CCCOc3cccc4ccccc34)c(C(=O)O)n(CCN3CCOCC3)c12
# YKL-5-124 = compound: C=CC(=O)Nc1ccc(C(=O)Nc2[nH]nc3c2CN(C(=O)N[C@H](CN(C)C)c2ccccc2)C3(C)C)cc1 [YKL-5-124]; assay: increase in dead-cell fraction, 72 h; higher = more death;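 note: breast cancer cell lines in 384-well plates, stained with Hoechst plus LIVE/DEAD far red dye and imaged, cells above an LDR intensity threshold counted dead, Hoechst-negative corpses included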
# BSJ-03-123 = compound: CC(=O)c1c(C)c2cnc(Nc3ccc(N4CCN(CCOCCOCCOCCNC(=O)COc5cccc6c5C(=O)N(C5CCC(=O)NC5=O)C6=O)CC4)cn3)nc2n(C2CCCC2)c1=O [BSJ-03-123]; assay: as above
# [4] = compound: CC(=O)c1c(C)c2cnc(Nc3ccc(N4CCNCC4)cn3)nc2n(C2CCCC2)c1=O; assay: as above
# [5] = compound: CCN1CCN(Cc2ccc(Nc3ncc(F)c(-c4cc(F)c5nc(C)n(C(C)C)c5c4)n3)nc2)CC1; assay: as above
# Neratinib/HKI272 = compound: CCOc1cc2ncc(C#N)c(Nc3ccc(OCc4ccccn4)c(Cl)c3)c2cc1NC(=O)/C=C/CN(C)C [Neratinib/HKI272]; assay: as above
# [6] = compound: CCc1cnn2c(NCc3ccc[n+]([O-])c3)cc(N3CCCC[C@H]3CCO)nc12; assay: as above
# LEE011/Ribociclib [7] = compound: T1, LEE011/Ribociclib; assay: as above
# THZ531 = compound: CN(C)C/C=C/C(=O)Nc1ccc(C(=O)N2CCC[C@@H](Nc3ncc(Cl)c(-c4c[nH]c5ccccc45)n3)C2)cc1 [THZ531]; assay: as above
# THZ1 = compound: CN(C)C/C=C/C(=O)Nc1ccc(C(=O)Nc2cccc(Nc3ncc(Cl)c(-c4c[nH]c5ccccc45)n3)c2)cc1 [THZ1]; assay: as above
# Flavopiridol = compound: CN1CC[C@H](c2c(O)cc(O)c3c(=O)cc(-c4ccccc4Cl)oc23)[C@H](O)C1 [Flavopiridol]; assay: as above
# 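Throughout, for GR50, 72 h: breast cancer and non-malignant breast epithelial cell lines, Deep Dye Drop or Dye Drop imaging, nine half-log doses, GR normalized to time-zero plates and DMSO-only controls.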
cell line,measurement,setting,value
HCC1806,"GR50, 72 h",[1],0.0134 µM
same,"GR50, 72 h",LEE011/Ribociclib [2],> 10 µM
same,"GR50, 72 h",Doxorubicin,0.0159 µM
same,"GR50, 72 h",Pictilisib/GDC0941,5.87 µM
same,"GR50, 72 h",Ceritinib/LDK378,2.14 µM
same,"GR50, 72 h",[3],> 10 µM
same,increase in dead-cell fraction,YKL-5-124; 0.001 µM,0.0531
same,increase in dead-cell fraction,YKL-5-124; 0.003162 µM,0.0858
same,increase in dead-cell fraction,YKL-5-124; 0.01 µM,0.134
same,increase in dead-cell fraction,YKL-5-124; 0.03162 µM,0.202
same,increase in dead-cell fraction,YKL-5-124; 0.1 µM,0.196
same,increase in dead-cell fraction,YKL-5-124; 0.3162 µM,0.264
same,increase in dead-cell fraction,YKL-5-124; 1 µM,0.331
same,increase in dead-cell fraction,YKL-5-124; 3.162 µM,0.322
same,increase in dead-cell fraction,YKL-5-124; 10 µM,0.538
same,increase in dead-cell fraction,BSJ-03-123; 0.001 µM,0.0017
same,increase in dead-cell fraction,BSJ-03-123; 0.003162 µM,0.0008
same,increase in dead-cell fraction,BSJ-03-123; 0.01 µM,-0.0016
same,increase in dead-cell fraction,BSJ-03-123; 0.03162 µM,-0.0015
same,increase in dead-cell fraction,BSJ-03-123; 0.1 µM,0.0039
same,increase in dead-cell fraction,BSJ-03-123; 0.3162 µM,0.0061
same,increase in dead-cell fraction,BSJ-03-123; 1 µM,0.0075
same,increase in dead-cell fraction,BSJ-03-123; 3.162 µM,0.0235
same,increase in dead-cell fraction,BSJ-03-123; 10 µM,0.152
same,increase in dead-cell fraction,[4]; 0.0003162 µM,0.0005
same,increase in dead-cell fraction,[4]; 0.001 µM,0.0026
same,increase in dead-cell fraction,[4]; 0.003162 µM,0.0009
same,increase in dead-cell fraction,[4]; 0.01 µM,-0.0004
same,increase in dead-cell fraction,[4]; 0.03162 µM,0.0094
same,increase in dead-cell fraction,[4]; 0.1 µM,0.0238
same,increase in dead-cell fraction,[4]; 0.3162 µM,0.0157
same,increase in dead-cell fraction,[4]; 1 µM,0.0237
same,increase in dead-cell fraction,[4]; 3.162 µM,0.0046
same,increase in dead-cell fraction,[5]; 0.001 µM,0.0032
same,increase in dead-cell fraction,[5]; 0.003162 µM,-0.005
same,increase in dead-cell fraction,[5]; 0.01 µM,0.0052
same,increase in dead-cell fraction,[5]; 0.03162 µM,0.0175
same,increase in dead-cell fraction,[5]; 0.1 µM,0.0076
same,increase in dead-cell fraction,[5]; 0.3162 µM,0.0172
same,increase in dead-cell fraction,[5]; 1 µM,0.043
same,increase in dead-cell fraction,[5]; 3.162 µM,0.154
same,increase in dead-cell fraction,[5]; 10 µM,0.698
same,increase in dead-cell fraction,Neratinib/HKI272; 0.0003162 µM,0.0048
same,increase in dead-cell fraction,Neratinib/HKI272; 0.001 µM,-0.0002
same,increase in dead-cell fraction,Neratinib/HKI272; 0.003162 µM,0.0056
same,increase in dead-cell fraction,Neratinib/HKI272; 0.01 µM,0.015
same,increase in dead-cell fraction,Neratinib/HKI272; 0.03162 µM,0.0267
same,increase in dead-cell fraction,Neratinib/HKI272; 0.1 µM,0.0441
same,increase in dead-cell fraction,Neratinib/HKI272; 0.3162 µM,0.065
same,increase in dead-cell fraction,Neratinib/HKI272; 1 µM,0.0775
same,increase in dead-cell fraction,Neratinib/HKI272; 3.162 µM,0.435
same,increase in dead-cell fraction,[6]; 0.0001 µM,-0.0016
same,increase in dead-cell fraction,[6]; 0.0003162 µM,-0.0077
same,increase in dead-cell fraction,[6]; 0.001 µM,-0.0005
same,increase in dead-cell fraction,[6]; 0.003162 µM,0.0006
same,increase in dead-cell fraction,[6]; 0.01 µM,0.0355
same,increase in dead-cell fraction,[6]; 0.03162 µM,0.585
same,increase in dead-cell fraction,[6]; 0.1 µM,0.742
same,increase in dead-cell fraction,[6]; 0.3162 µM,0.728
same,increase in dead-cell fraction,[6]; 1 µM,0.713
same,increase in dead-cell fraction,LEE011/Ribociclib [7]; 0.001 µM,0.0002
same,increase in dead-cell fraction,LEE011/Ribociclib [7]; 0.003162 µM,-0.0001
same,increase in dead-cell fraction,LEE011/Ribociclib [7]; 0.01 µM,0.0014
same,increase in dead-cell fraction,LEE011/Ribociclib [7]; 0.03162 µM,-0.0047
same,increase in dead-cell fraction,LEE011/Ribociclib [7]; 0.1 µM,0.0015
same,increase in dead-cell fraction,LEE011/Ribociclib [7]; 0.3162 µM,0.0032
same,increase in dead-cell fraction,LEE011/Ribociclib [7]; 1 µM,0.0064
same,increase in dead-cell fraction,LEE011/Ribociclib [7]; 3.162 µM,0.0046
same,increase in dead-cell fraction,LEE011/Ribociclib [7]; 10 µM,0.0171
same,increase in dead-cell fraction,THZ531; 0.0001 µM,0.0006
same,increase in dead-cell fraction,THZ531; 0.0003162 µM,0.001
same,increase in dead-cell fraction,THZ531; 0.001 µM,0.0004
same,increase in dead-cell fraction,THZ531; 0.003162 µM,-0.0016
same,increase in dead-cell fraction,THZ531; 0.01 µM,-0.0015
same,increase in dead-cell fraction,THZ531; 0.03162 µM,0.0016
same,increase in dead-cell fraction,THZ531; 0.1 µM,0.0014
same,increase in dead-cell fraction,THZ531; 0.3162 µM,0.0179
same,increase in dead-cell fraction,THZ531; 1 µM,0.586
same,increase in dead-cell fraction,THZ1; 0.0001 µM,-0.0025
same,increase in dead-cell fraction,THZ1; 0.0003162 µM,-0.0038
same,increase in dead-cell fraction,THZ1; 0.001 µM,-0.0025
same,increase in dead-cell fraction,THZ1; 0.003162 µM,-0.0009
same,increase in dead-cell fraction,THZ1; 0.01 µM,-0.0024
same,increase in dead-cell fraction,THZ1; 0.03162 µM,0.0112
same,increase in dead-cell fraction,THZ1; 0.1 µM,0.0478
same,increase in dead-cell fraction,THZ1; 0.3162 µM,0.271
same,increase in dead-cell fraction,THZ1; 1 µM,0.766
same,increase in dead-cell fraction,Flavopiridol; 0.0001 µM,-0.0011
same,increase in dead-cell fraction,Flavopiridol; 0.0003162 µM,-0.0029
same,increase in dead-cell fraction,Flavopiridol; 0.001 µM,0.003
same,increase in dead-cell fraction,Flavopiridol; 0.003162 µM,-0.001
same,increase in dead-cell fraction,Flavopiridol; 0.01 µM,0.0029
same,increase in dead-cell fraction,Flavopiridol; 0.03162 µM,0.005
same,increase in dead-cell fraction,Flavopiridol; 0.1 µM,0.019
same,increase in dead-cell fraction,Flavopiridol; 0.3162 µM,0.0572
same,increase in dead-cell fraction,Flavopiridol; 1 µM,0.71
